Measured values as given in ChEMBL document CHEMBL3045852, “Synthesis of limonoid CDE fragments related to limonin and nimbinim” (2010).

System: Spodoptera littoralis
Assay: Antifeedant activity against Spodoptera littoralis
Type: functional

Compound: CC1(C)CC(=O)C[C@@]2(C)[C@H](c3ccsc3)C(=O)[C@H]3O[C@@]312
- AFI: 24%

Compound: CC1(C)CC(=O)C[C@@]2(C)[C@H](c3ccoc3)C(=O)[C@H]3O[C@@]312 (relative stereo)
- AFI: 45%
